Laboratory results: article PMC11432795, “Mutagenesis of the Peptide Inhibitor of ASIC3 Channel Introduces Binding to Thumb Domain of ASIC1a but Reduces Analgesic Activity” (Marine Drugs, 2024)
“Also recorded” adds a separate entry of the source. Positions of bridges follow the written chain, without caps; N, C: chain ends. Residues, ends and D or L forms follow the SMILES beside them.

Test system: rat ASIC1a D355A mutant channel
Assay: Two-electrode voltage clamp, D355A mutant ASIC1a in X. laevis oocytes
Format: cell-based
Conditions: 10 µM; pH 5.5 stimulus, conditioning pH 7.4, peptide 30 s; n = 5
Protocol: Figure 5 The pivotal role of residue D355 in the ASIC1a channel for the action of the A23K peptide ligand. (A,B) pH dependence of steady-state desensitization (A) and activation (B) in mutant channels (D355A and E357A) compared to the wild-type channel (wt). Each data point represents results from 5 cells. (C–E) Representative current traces illustrating the effects of A23K at a concentration of 10 µM on wt (C), D355A (D), and E357A (E) channels. Currents were evoked by a pH 5.5 stimulus following a conditioning pH of 7.4, with the peptide applied for 30 s preceding the pH stimulus. (F) Bar graph quantifying the effects depicted in (C,D) as a percentage of the corresponding control currents (n = 5). A value of 1.0, represented by a dotted line, corresponds to control measurements at pH 5.5 for each form of ASIC1a. The data are expressed as mean ± SEM; *** p < 0.001, **** p < 0.0001, ns non-significant vs. control, unpaired t-test.
To introduce D355A and E357A substitutions, we designed two pairs of primers. For D355A substitution, the forward primer sequence was 5′–[…]–3′, and the reverse primer (R2) for D355A was 5′–CTAGGAAGTCCAGGGCAG–3′. For E357A substitution, the forward primer sequence was 5′–[…]–3′, and the reverse primer for E357A was the same as for D355A (designated as “R2”). […]

SMILES: CC[C@H](C)[C@H](N)C(=O)N[C@@H](CO)C(=O)N[C@H](C(=O)N[C@@H](CC(=O)O)C(=O)N1CCC[C@H]1C(=O)N1CCC[C@H]1C(=O)N[C@H]1CSSC[C@@H]2NC(=O)[C@H](CC(N)=O)NC(=O)CNC(=O)[C@H](CO)NC(=O)CNC(=O)[C@H](CC(=O)O)NC(=O)[C@H](CCCNC(=N)N)NC(=O)[C@H](Cc3c[nH]cn3)NC(=O)[C@H](Cc3ccc(O)cc3)NC(=O)[C@H](CSSC[C@@H](C(=O)NCC(=O)N[C@@H](C)C(=O)N[C@H](C(=O)O)C(C)C)NC(=O)CNC(=O)[C@H](Cc3ccc(O)cc3)NC(=O)[C@H](CCCCN)NC(=O)[C@H](CC(=O)O)NC(=O)[C@H](Cc3ccc(O)cc3)NC(=O)[C@H](C(C)C)NC2=O)NC(=O)[C@H](Cc2ccccc2)NC(=O)[C@H](CCCNC(=N)N)NC1=O)[C@@H](C)CC [A23K] (H-ISIDPPCRFCYHRDGSGNCVYDKYGCGAV-OH; disulfide 7-19, 10-26)
- inhibitory effect on D355A mutant channel: no significant effect; also recorded: entirely abolished
